Data on 13 molecules can be found in patent US20230391766A1, “1-(2-(4-CYCLOPROPYL-1H-1,2,3-TRIAZOL-1-YL)ACETYL)-4-HYDROXY-N-(BENZYL)PYRROLIDIN E-2-CARBOXAMIDE DERIVATIVES AS VHL INHIBITORS FOR THE TREATMENT OF ANEMIA AND CANCER” (Genentech, Inc., priority 2020, published 2023).

The structures appear in SMILES notation.

Data set [1] deals with T1, VHL (Homo sapiens, UniProt P40337).
T1 construct: expressed in transfected cells
The experiment in a line: VHL HEK-293 BRET Assay (VHL NanoBRET Target Engagement Assay). The following applies: for IC50: HEK 293 RT VHL-NanoLuc stable cells, 1 uM tracer, 2 hours, geometric mean where more than one measurement, read-out: VHL binding in cells (HEK293 nanoBRET); for Ratio cell permeability shift: ratio not defined. The data set is classed as cell-based. The procedure:
(§1) The VHL NanoBRET™ Target Engagement Assay analyzes the apparent affinity of test compounds for VHL in cells by competitive displacement of a VHL NanoBRET™ tracer reversibly bound to a NanoLuc® VHL fusion protein stably expressed in the cells.
(§2) 50 nL of control compound (10 mM; parental unlabeled VHL antagonist; see structure below) and 50 nL of DMSO (negative control) were dispensed into the appropriate control wells. DMSO was backfilled to a final volume of 50 nL as required. […] Max Signal control wells consisted of DMSO only treated wells. Minimum Signal control wells contained of 10 uM parental unlabeled VHL antagonist (control compound—see structure below). […] Background Signal control wells were prepared without tracer for background correction steps.
(§3) The raw BRET ratio values were calculated by dividing the acceptor emission value (610 nm) by the donor emission value (460 nm) for each sample. To correct for background, the BRET ratio in the absence of tracer (average of no-tracer control samples) was subtracted from the BRET ratio of each sample. Raw BRET units were converted to milliBRET units (mBU) by multiplying each raw BRET value by 1,000. The normalized NanoBRET™ signal was calculated relative to the Max Signal control wells (DMSO treated control wells) and the Minimum Signal control wells. Percentage inhibition was calculated relative to the Minimum Signal control and Maximum Signal control wells. IC50 values were derived by four parameter curve fitting using the Robust method.
A general note: Bioluminescence resonance energy transfer reports proximity on the nanometre scale.

Data set [2] has as its target T1, VHL. The experiment in a line: VHL nanoBRET (+ Digitonin). The format is cell-based. The procedure: as §1, §2, §3

T1 sequence (P40337 whole entry): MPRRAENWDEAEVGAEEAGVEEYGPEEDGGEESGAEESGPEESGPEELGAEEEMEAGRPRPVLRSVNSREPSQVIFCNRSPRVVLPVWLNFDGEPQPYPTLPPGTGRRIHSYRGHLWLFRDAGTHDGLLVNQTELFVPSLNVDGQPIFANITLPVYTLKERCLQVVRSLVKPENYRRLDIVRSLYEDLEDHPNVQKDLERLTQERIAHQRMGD

Consider `Cc1ncsc1-c1ccc(CNC(=O)[C@@H]2C[C@@H](O)CN2C(=O)[C@@H](n2cc(C3(C(F)(F)F)CC3)nn2)C(C)(C)C)cc1` [Example S28, (2S,4R)-1-((S)-3,3-dimethyl-2-(4-(1-(trifluoromethyl)cyclopropyl)-1H-1,2,3-triazol-1-yl)butanoyl)-4-hydroxy-N-(4-(4-methylthiazol-5-yl)benzyl)pyrrolidine-2-carboxamide], for which, at VHL [1], the IC50 stood at 40 nM and the “Ratio cell permeability shift” value was 0.98. Also, the midpoint of the response on VHL [2], the EC50, lay at 40 nM.

`Cc1ncsc1-c1ccc(CNC(=O)[C@@H]2C[C@@H](O)CN2C(=O)[C@@H](n2cc(C3(C)CC3)nn2)C(C)(C)C)cc1` [Example S29, (2S,4R)-1-((S)-3,3-dimethyl-2-(4-(1-methylcyclopropyl)-1H-1,2,3-triazol-1-yl)butanoyl)-4-hydroxy-N-(4-(4-methylthiazol-5-yl)benzyl)pyrrolidine-2-carboxamide]: on VHL [1], the IC50 is 10 nM and the “Ratio cell permeability shift” value is on record as 1.04. For the same molecule, at VHL [2], the half-maximal effective concentration (EC50) (in general, the concentration needed to bring the measured effect to its halfway point) stood at 10 nM.

Turning to `Cc1cnnn1[C@H](C(=O)N1C[C@H](O)C[C@H]1C(=O)N[C@H](Cc1ccc(-c2ccccc2)cc1)C(N)=O)C(C)C` [Example S32, (2S,4R)—N—((R)-3-([1,1′-biphenyl]-4-yl)-1-amino-1-oxopropan-2-yl)-4-hydroxy-1-((S)-3-methyl-2-(5-methyl-1H-1,2,3-triazol-1-yl)butanoyl)pyrrolidine-2-carboxamide], on VHL [1], the IC50 was 5400 nM and the “Ratio cell permeability shift” value was 1.48. On VHL [2], this molecule had a concentration giving a half-maximal response (EC50) of 3640 nM.

In the case of `Cc1nnn([C@H](C(=O)N2C[C@H](O)C[C@H]2C(=O)N[C@H](Cc2ccc(-c3ccccc3)cc2)C(N)=O)C(C)C)c1C` [Example S37, (2S,4R)—N—((R)-3-([1,1′-biphenyl]-4-yl)-1-amino-1-oxopropan-2-yl)-1-((S)-2-(4,5-dimethyl-1H-1,2,3-triazol-1-yl)-3-methylbutanoyl)-4-hydroxypyrrolidine-2-carboxamide], at VHL [1], the IC50 was found to be 1660 nM and the “Ratio cell permeability shift” value is 1.43. The same molecule came in with an EC50 at VHL [2] of 1160 nM.

Take `CC(C)[C@@H](C(=O)N1C[C@H](O)C[C@H]1C(=O)N[C@H](Cc1ccc(-c2ccccc2)cc1)C(N)=O)n1cc(-c2cccs2)nn1` [Example S38, (2S,4R)—N—((R)-3-([1,1′-biphenyl]-4-yl)-1-amino-1-oxopropan-2-yl)-4-hydroxy-1-((S)-3-methyl-2-(4-(thiophen-2-yl)-1H-1,2,3-triazol-1-yl)butanoyl)pyrrolidine-2-carboxamide]: on VHL [1], the IC50 came out at 190 nM and the “Ratio cell permeability shift” value is on record as 1.12. This molecule registered an EC50 at VHL [2] of 170 nM.

For `CC(C)[C@@H](C(=O)N1C[C@H](O)C[C@H]1C(=O)N[C@H](Cc1ccc(-c2ccccc2)cc1)C(N)=O)n1cc(-c2ccco2)nn1` [Example S39, (2S,4R)—N—((R)-3-([1,1′-biphenyl]-4-yl)-1-amino-1-oxopropan-2-yl)-1-((S)-2-(4-(furan-2-yl)-1H-1,2,3-triazol-1-yl)-3-methylbutanoyl)-4-hydroxypyrrolidine-2-carboxamide], on VHL [1], the IC50 was found to be 110 nM and the “Ratio cell permeability shift” value came out at 0.93. The midpoint of the response at VHL [2], the EC50, lay at 110 nM.

Regarding `Cc1ncsc1-c1ccc([C@@H](NC(=O)[C@@H]2C[C@@H](O)CN2C(=O)[C@@H](n2cc(C3CC3)nn2)C(C)(C)C)C(F)(F)F)cc1` [Example S40, (2S,4R)-1-((S)-2-(4-cyclopropyl-1H-1,2,3-triazol-1-yl)-3,3-dimethylbutanoyl)-4-hydroxy-N—((R)-2,2,2-trifluoro-1-(4-(4-methylthiazol-5-yl)phenyl)ethyl)pyrrolidine-2-carboxamide], on VHL [1], the IC50 came out at 80 nM and the “Ratio cell permeability shift” value came to 0.74. This molecule displayed a half-maximal effective concentration (EC50) on VHL [2] of 110 nM.

In the case of `C[C@H](NC(=O)[C@@H]1C[C@@H](O)CN1C(=O)[C@@H](n1cc(C2CC2)nn1)C(C)(C)C)c1ccc(-c2ccccc2F)cc1` [Example S41, (2S,4R)-1-((S)-2-(4-cyclopropyl-1H-1,2,3-triazol-1-yl)-3,3-dimethylbutanoyl)-N—((S)-1-(2′-fluoro-[1,1′-biphenyl]-4-yl)ethyl)-4-hydroxypyrrolidine-2-carboxamide], at VHL [1], the IC50 was determined as 10 nM and the “Ratio cell permeability shift” value is listed as 0.72. Moreover, the 50% effective concentration (EC50) at VHL [2] is 10 nM.

On to `C[C@@H](NC(=O)[C@@H]1C[C@@H](O)CN1C(=O)[C@@H](n1cc(C2CC2)nn1)C(C)(C)C)c1ccc(-c2ccccc2F)cc1` [Example S42, (2S,4R)-1-((S)-2-(4-cyclopropyl-1H-1,2,3-triazol-1-yl)-3,3-dimethylbutanoyl)-N—((R)-1-(2′-fluoro-[1,1′-biphenyl]-4-yl)ethyl)-4-hydroxypyrrolidine-2-carboxamide], for which, at VHL [1], the IC50 stood at 1100 nM and the “Ratio cell permeability shift” value is listed as 0.71. At VHL [2], the response was half-maximal at 1540 nM (EC50).

With `CC(C)(C)[C@@H](C(=O)N1C[C@H](O)C[C@H]1C(=O)NCc1ccc(-c2ccccc2F)cc1)n1cc(C2CC2)nn1` [Example S43, (2S,4R)-1-((S)-2-(4-cyclopropyl-1H-1,2,3-triazol-1-yl)-3,3-dimethylbutanoyl)-N-((2′-fluoro-[1,1′-biphenyl]-4-yl)methyl)-4-hydroxypyrrolidine-2-carboxamide], on VHL [1], the IC50 stood at 30 nM and the “Ratio cell permeability shift” value amounted to 1.03. On VHL [2], this molecule came in with a concentration for a half-maximal effect (EC50) of 30 nM.

Regarding `Cc1ncsc1-c1ccc2c(c1)CCCC[C@H]2NC(=O)[C@@H]1C[C@@H](O)CN1C(=O)[C@@H](n1cc(C2CC2)nn1)C(C)(C)C` [Example S44, (2S,4R)-1-((S)-2-(4-cyclopropyl-1H-1,2,3-triazol-1-yl)-3,3-dimethylbutanoyl)-4-hydroxy-N—((R)-2-(4-methylthiazol-5-yl)-6,7,8,9-tetrahydro-5H-benzo[7]annulen-5-yl)pyrrolidine-2-carboxamide], the IC50 on VHL [1] was under 5 nM. The concentration giving a half-maximal response (EC50) at VHL [2] was under 5 nM.

`Cc1ncsc1-c1ccc2c(c1)CCCC[C@@H]2NC(=O)[C@@H]1C[C@@H](O)CN1C(=O)[C@@H](n1cc(C2CC2)nn1)C(C)(C)C` [Example S45, (2S,4R)-1-((S)-2-(4-cyclopropyl-1H-1,2,3-triazol-1-yl)-3,3-dimethylbutanoyl)-4-hydroxy-N—((S)-2-(4-methylthiazol-5-yl)-6,7,8,9-tetrahydro-5H-benzo[7]annulen-5-yl)pyrrolidine-2-carboxamide]: at VHL [1], the IC50 was 200 nM and the “Ratio cell permeability shift” value is on record as 0.86. The half-maximal effective concentration (EC50) on VHL [2] came to 230 nM.

For the molecule `C[C@H](NC(=O)[C@@H]1C[C@@H](O)CN1C(=O)[C@@H](n1cc(C2CC2)nn1)C(C)(C)C)c1ccc(-c2ccccc2Cl)cc1` [Example S46, (2S,4R)—N—((S)-1-(2′-chloro-[1,1′-biphenyl]-4-yl)ethyl)-1-((S)-2-(4-cyclopropyl-1H-1,2,3-triazol-1-yl)-3,3-dimethylbutanoyl)-4-hydroxypyrrolidine-2-carboxamide], at VHL [1], the IC50 was determined as 10 nM and the “Ratio cell permeability shift” value came out at 0.84. For the same molecule, a half-maximal effect on VHL [2] (EC50) was put at 10 nM.
